{"source": "paper PMC6934184", "about": "“Selective DNA-PKcs inhibition extends the therapeutic index of localized radiotherapy and chemotherapy” (The Journal of Clinical Investigation, 2019)", "molecular_target": "T1, BRSK2 (Homo sapiens, UniProt Q8IWQ3)", "T1 construct": "purchased Thermo Fisher Scientific (Life Technologies) SelectScreen", "T1 sequence (Q8IWQ3 whole entry)": "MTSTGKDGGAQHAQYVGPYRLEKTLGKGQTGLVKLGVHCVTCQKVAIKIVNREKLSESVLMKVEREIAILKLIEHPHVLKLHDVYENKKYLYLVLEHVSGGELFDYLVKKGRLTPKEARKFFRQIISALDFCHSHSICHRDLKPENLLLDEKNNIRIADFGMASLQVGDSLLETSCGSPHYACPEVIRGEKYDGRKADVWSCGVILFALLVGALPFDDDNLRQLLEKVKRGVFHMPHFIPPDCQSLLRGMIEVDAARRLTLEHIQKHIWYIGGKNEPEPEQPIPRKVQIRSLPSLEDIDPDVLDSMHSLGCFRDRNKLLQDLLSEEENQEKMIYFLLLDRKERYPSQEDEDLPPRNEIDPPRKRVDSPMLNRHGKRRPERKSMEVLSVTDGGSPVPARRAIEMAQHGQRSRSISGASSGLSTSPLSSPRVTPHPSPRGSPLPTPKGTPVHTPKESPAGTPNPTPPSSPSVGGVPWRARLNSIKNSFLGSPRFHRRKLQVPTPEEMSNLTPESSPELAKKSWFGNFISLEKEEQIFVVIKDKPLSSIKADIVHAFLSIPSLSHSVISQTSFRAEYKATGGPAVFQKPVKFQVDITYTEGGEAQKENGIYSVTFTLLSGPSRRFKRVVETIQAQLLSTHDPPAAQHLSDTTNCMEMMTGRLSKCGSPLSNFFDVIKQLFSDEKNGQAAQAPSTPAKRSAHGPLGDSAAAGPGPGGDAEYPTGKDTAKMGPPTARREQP", "assay": "SelectScreen LanthaScreen", "type": "binding", "conditions": "read-out: % displacement", "method_in_brief": "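SelectScreen broad panel; activity (Z'LYTE, Adapta) plus binding formats. ATP: Km app for CSF1R Z'LYTE; 10 for CAMK1 Adapta. Readout = % per kinase.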"}
{"smiles": "CN(C(=O)CN1CCOCC1)c1ccc2sc3c(-c4cccc5c(=O)cc(N6CC7CCC(C6)O7)oc45)cccc3c2c1", "note": "[NU5455]", "values": [{"measurement": "inhibition at 1 µM", "result": 1.2, "unit": "%"}]}
